Data: patent publication US9113629B2, “4-amino-6-(4-substituted-phenyl)-picolinates and 6-amino-2-(4-substituted-phenyl)-pyrimidine-4-carboxylates and their use as herbicides” (DOW AGROSCIENCES LLC, priority 2013, dated 2015)

Experiments:
[1] = system: HORSS: barley, including spring and winter (Hordeum vulgare); test: Post-emergent Test III, herbicidal activity in wheat and barley; format: in vivo; conditions: Table 9, 21 d; for pest or weed control at 35 g/ha / pest or weed control at 70 g/ha / pest or weed control at 140 g/ha: Hordeum vulgare, post-emergence, 504 h, post-emergent, read-out: Visual Growth Reduction (%) 21 Days After Application HORSS; for pest or weed control at 35 g/ha: 35 g ai/ha; for pest or weed control at 70 g/ha: 70 g ai/ha; for pest or weed control at 140 g/ha: 140 g ai/ha; for GR20 HORSS: dose for 20 percent growth reduction, probit analysis
Experimental: (§1) Post-emergent Test III. Seeds of the desired test plant species were planted in Sun Gro MetroMix® 306 planting mixture, which typically has a pH of 6.0 to 6.8 and an organic matter content of about 30 percent, in plastic pots with a surface area of 103.2 square centimeters (cm^2). When required to ensure good germination and healthy plants, a fungicide treatment and/or other chemical or physical treatment was applied. The plants were grown for 7-36 days (d) in a greenhouse with an approximate 14 hour (h) photoperiod which was maintained at about 18° C. during the day and 17° C. during the night. Nutrients and water were added on a regular basis and supplemental lighting was provided with overhead metal halide 1000-Watt lamps as necessary. The plants were employed for testing when they reached the second or third true leaf stage.
(§2) A weighed amount, determined by the highest rate to be tested, of each test compound was placed in a 25 mL glass vial and was dissolved in 4 mL of a 97:3 v/v mixture of acetone and DMSO to obtain concentrated stock solutions. […] The concentrated stock solutions obtained were diluted with 20 mL of an aqueous mixture containing acetone, water, isopropyl alcohol, DMSO, Agri-Dex crop oil concentrate, and X-77 surfactant in a 48:39:10:1.5:1.5:0.02 v/v ratio to obtain spray solutions containing the highest application rates. Additional application rates were obtained by serial dilution of 12 mL of the high rate solution into a solution containing 2 mL of 97:3 v/v mixture of acetone and DMSO and 10 mL of an aqueous mixture containing acetone, water, isopropyl alcohol, DMSO, Agri-Dex crop oil concentrate, and X-77 surfactant in a 48:39:10:1.5:1.5:0.02 v/v ratio to obtain ½×, ¼×, ⅛× and 1/16× rates of the high rate. Compound requirements are based upon a 12 mL application volume at a rate of 187 liters per hectare (L/ha). Formulated compounds were applied to the plant material with an overhead Mandel track sprayer equipped with 8002E nozzles calibrated to deliver 187 L/ha over an application area of 0.503 square meters at a spray height of 18 inches (43 cm) above the average plant canopy height. Control plants were sprayed in the same manner with the solvent blank.
(§3) The treated plants and control plants were placed in a greenhouse as described above and watered by subirrigation to prevent wash-off of the test compounds. After 21 d, the condition of the test plants as compared with that of the untreated plants was determined visually and scored on a scale of 0 to 100 percent where 0 corresponds to no injury and 100 corresponds to complete kill.
(§4) By applying the well-accepted probit analysis as described by J. Berkson in Journal of the American Statistical Society, 48, 565 (1953) and by D. Finney in “Probit Analysis” Cambridge University Press (1952), herbicidal injury of a specific compound at various rates can be used to calculate GR20, GR50, GR80 and GR90 values, which are defined as growth reduction factors that correspond to the effective dose of herbicide required to provide plant growth reduction (GR) of 20 percent, 50 percent, 80 percent and 90 percent, respectively. Probit analysis was applied to data collected from multiple dose rates of individual compounds utilizing the procedures explained in the following examples. The analysis of those dose rates is captured in the following tables.

[2] = system: APESV: bentgrass (Apera spica-venti); test: as above; format: in vivo; conditions: Table 9, 21 d; for pest or weed control at 35 g/ha / pest or weed control at 70 g/ha / pest or weed control at 140 g/ha: Apera spica-venti, post-emergence, 504 h, post-emergent, read-out: Visual Growth Reduction (%) 21 Days After Application APESV; for pest or weed control at 35 g/ha: 35 g ai/ha; for pest or weed control at 70 g/ha: 70 g ai/ha; for pest or weed control at 140 g/ha: 140 g ai/ha; for GR50 APESV: dose for 50 percent growth reduction; for GR50 APESV / GR80 APESV: probit analysis; for GR80 APESV: dose for 80 percent growth reduction
Experimental: as §1, §2, §3, §4

[3] = system: KCHSC: kochia (Kochia scoparia); test: as above; format: in vivo; conditions: Table 9, 21 d; for pest or weed control at 35 g/ha / pest or weed control at 70 g/ha / pest or weed control at 140 g/ha: Bassia scoparia, post-emergence, 504 h, post-emergent, read-out: Visual Growth Reduction (%) 21 Days After Application KCHSC; for pest or weed control at 35 g/ha: 35 g ai/ha; for pest or weed control at 70 g/ha: 70 g ai/ha; for pest or weed control at 140 g/ha: 140 g ai/ha; for GR50 KCHSC: dose for 50 percent growth reduction; for GR50 KCHSC / GR80 KCHSC: probit analysis; for GR80 KCHSC: dose for 80 percent growth reduction
Experimental: as §1, §2, §3, §4

[4] = as above; format: in vivo, Lolium multiflorum, Lolium rigidum; conditions: Lolium multiflorum, post-emergence, 504 h, Table 9, post-emergent, 21 d, read-out: Visual Growth Reduction (%) 21 Days After Application LOLSS; for pest or weed control at 35 g/ha: 35 g ai/ha; for pest or weed control at 70 g/ha: 70 g ai/ha; for pest or weed control at 140 g/ha: 140 g ai/ha
Experimental: as §1, §2, §3, §4

[5] = system: LOLSS: ryegrass including, Italian ryegrass (Lolium multiflorum), rigid ryegrass (Lolium rigidum), annual ryegrass (Lolium multiflorum subsp. Gaudini); test: as above; format: in vivo; conditions: Table 9, probit analysis, 21 d; for GR50 LOLSS: dose for 50 percent growth reduction; for GR80 LOLSS: dose for 80 percent growth reduction
Experimental: as §1, §2, §3, §4

[6] = system: SETVI: green foxtail (Setaria viridis); test: as above; format: in vivo; conditions: Table 9, 21 d; for pest or weed control at 35 g/ha / pest or weed control at 70 g/ha / pest or weed control at 140 g/ha: Setaria viridis, post-emergence, 504 h, post-emergent, read-out: Visual Growth Reduction (%) 21 Days After Application SETVI; for pest or weed control at 35 g/ha: 35 g ai/ha; for pest or weed control at 70 g/ha: 70 g ai/ha; for pest or weed control at 140 g/ha: 140 g ai/ha; for GR50 SETVI: dose for 50 percent growth reduction; for GR50 SETVI / GR80 SETVI: probit analysis; for GR80 SETVI: dose for 80 percent growth reduction
Experimental: as §1, §2, §3, §4

[7] = system: TRZSS: wheat, including spring and winter (Triticum aestivum); test: as above; format: in vivo; conditions: Table 9, 21 d; for GR20 TRZSS: dose for 20 percent growth reduction, probit analysis; for pest or weed control at 35 g/ha / pest or weed control at 70 g/ha / pest or weed control at 140 g/ha: Triticum aestivum, post-emergence, 504 h, post-emergent, read-out: Visual Growth Reduction (%) 21 Days After Application TRZSS; for pest or weed control at 35 g/ha: 35 g ai/ha; for pest or weed control at 70 g/ha: 70 g ai/ha; for pest or weed control at 140 g/ha: 140 g ai/ha
Experimental: as §1, §2, §3, §4

| SMILES | pest or weed control at 35 g/ha [1] [%] | pest or weed control at 70 g/ha [1] [%] | GR20 HORSS [1] [g ai/ha] | pest or weed control at 35 g/ha [2] [%] | pest or weed control at 70 g/ha [2] [%] | GR50 APESV [2] [g ai/ha] | GR80 APESV [2] [g ai/ha] | pest or weed control at 35 g/ha [3] [%] | pest or weed control at 70 g/ha [3] [%] | GR50 KCHSC [3] [g ai/ha] | GR80 KCHSC [3] [g ai/ha] | pest or weed control at 35 g/ha [4] [%] | pest or weed control at 70 g/ha [4] [%] | GR50 LOLSS [5] [g ai/ha] | GR80 LOLSS [5] [g ai/ha] | pest or weed control at 35 g/ha [6] [%] | pest or weed control at 70 g/ha [6] [%] | GR50 SETVI [6] [g ai/ha] | GR80 SETVI [6] [g ai/ha] | GR20 TRZSS [7] [g ai/ha] | other results |
| --- | --- | --- | --- | --- | --- | --- | --- | --- | --- | --- | --- | --- | --- | --- | --- | --- | --- | --- | --- | --- | --- |
| COC(=O)c1nc(-c2ccc(I)cc2)c(Cl)c(N)c1Cl [Compound 96] | 85 to 94 | 95 to 100 | 1 | 30 to 44 | 30 to 44 | 125 | >140 | 0 to 29 | 60 to 74 | 79 | >140 | 45 to 59 | 60 to 74 | 48 | >140 | 0 to 29 | 60 to 74 | 72 | 128 | 1 | pest or weed control at 140 g/ha [1]: 95 to 100%; pest or weed control at 140 g/ha [2]: 45 to 59%; pest or weed control at 140 g/ha [3]: 60 to 74%; pest or weed control at 140 g/ha [4]: 60 to 74%; pest or weed control at 140 g/ha [6]: 75 to 84%; pest or weed control at 35 g/ha [7]: 85 to 94%; pest or weed control at 70 g/ha [7]: 85 to 94%; pest or weed control at 140 g/ha [7]: 95 to 100% |
| C=Cc1c(C(=O)O)nc(-c2ccc(Br)cc2)c(F)c1N [Compound 117] | 0 to 29 | 0 to 29 | 73 | 45 to 59 | 60 to 74 | 41 | >140 | 60 to 74 | 75 to 84 | 20 | 67 | 45 to 59 | 60 to 74 | 41 | >140 | 0 to 29 | 60 to 74 | 59 | 99 | 32 | pest or weed control at 35 g/ha [7]: 0 to 29%; pest or weed control at 70 g/ha [7]: 30 to 44% |
| Nc1c(Cl)c(C(=O)O)nc(-c2ccc(Br)cc2)c1Cl [Compound 125] | 85 to 94 | 95 to 100 | 1 | 75 to 84 | 85 to 94 | 10 | 41 | 60 to 74 | 85 to 94 | 8 | 34 | 0 to 29 | 0 to 29 | >140 | >140 | 85 to 94 | 85 to 94 | 2 | 16 | 1 | pest or weed control at 140 g/ha [1]: 95 to 100%; pest or weed control at 140 g/ha [2]: 95 to 100%; pest or weed control at 140 g/ha [3]: 95 to 100%; pest or weed control at 140 g/ha [4]: 45 to 59%; pest or weed control at 140 g/ha [6]: 85 to 94%; pest or weed control at 35 g/ha [7]: 75 to 84%; pest or weed control at 70 g/ha [7]: 75 to 84%; pest or weed control at 140 g/ha [7]: 85 to 94% |
